Values quoted from earlier work, collected in patent US6040300A, “Method of preventing colon cancer with vitamin D3 analogues” (Arch Development Corporation, priority 1995, dated 2000).

Columns and labels:
[1] = system: chemically-induced colonic tumors; conditions: in vivo; cited from earlier work
[2] = system: ornithine decarboxylase (ODC); conditions: induced by various chemical carcinogens, preneoplastic period; cited from earlier work
c-myc mRNA = conditions: HL-60 cells; cited from earlier work
class II antigens = conditions: monocytes and lymphocytes; cited from earlier work
suppressor T cell = conditions: cited from earlier work
[3] = system: malignant cell lines, including several derived from human colon adenocarcinomas; conditions: in vitro; cited from earlier work
[4] = system: MHC class I and II antigens; conditions: colonic tumor formation, AOM model; cited from earlier work
AOM metabolism = conditions: cited from earlier work
[5] = system: colon carcinogenesis induced by 1,2-dimethylhydrazine (DMH); conditions: dietary supplementation; high fat diet; cited from earlier work

Compound: C=C1/C(=C\C=C2/CCC[C@]3(C)[C@@H]([C@H](C)CCCC(C)C)CC[C@@H]23)C[C@@H](O)C[C@@H]1O [1α(OH)D3, 1α-hydroxyvitamin D3]
- protection against chemically-induced colonic tumors [1]: protect against the development of chemically-induced colonic tumors

Compound: C=C1/C(=C\C=C2/CCC[C@]3(C)[C@@H]([C@H](C)CCCC(C)(C)O)CC[C@@H]23)C[C@@H](O)C[C@@H]1O [1α,25(OH)2 D3, 1α,25-dihydroxyvitamin D3]
- inhibition of increase in colonic mucosal ODC [2]: inhibit the increase in colonic mucosal ODC
- protection against chemically-induced colonic tumors [1]: protect against the development of chemically-induced colonic tumors
- c-myc mRNA expression (c-myc mRNA): decrease c-myc mRNA expression in HL-60 cells
- expression of class II antigens (class II antigens): effect the expression of class II antigens by monocytes and lymphocytes
- suppressor T cell activity (suppressor T cell): promote suppressor T cell activity
- inhibition of proliferation [3]: inhibit the proliferation of a number of malignant cell lines in vitro

Compound: CN1C(C(=O)Nc2ccccn2)=C(O)c2ccccc2S1(=O)=O [piroxicam]
- chemopreventive effect paralleled by MHC antigen alterations [4]: paralleled by alterations in the expression of these antigens

Compound: c1cn[nH]c1 [pyrazole]
- inhibition of AOM metabolism (AOM metabolism): inhibition of AOM metabolism

Compound: C[C@H](CCC(=O)O)[C@H]1CC[C@H]2[C@@H]3[C@@H](O)C[C@@H]4C[C@H](O)CC[C@]4(C)[C@H]3CC[C@]12C [ursodeoxycholic acid]
- chemopreventive effect paralleled by MHC antigen alterations [4]: paralleled by alterations in the expression of these antigens

Compound: C=C1CC[C@H](O)C/C1=C/C=C1\CCC[C@]2(C)[C@@H]([C@H](C)CCCC(C)C)CC[C@@H]12 [vitamin D3, cholecalciferol]
- inhibition of colon carcinogenesis incidence [5]: inhibit the incidence of colon carcinogenesis
